Consider eight molecules from PubChem BioAssay AID651781 (The Scripps Research Institute Molecular Screening Center, 2012).

Active and inactive are the calls of the source.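 How the source made its calls: active means IC50 at or below 10 µM; inactive means IC50 above 10 µM.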

This experiment concerns the target GAL4 DBD-VP16 fusion transactivation (Human herpesvirus 1 VP16). The experiment can be described thus: GAL4-VP16 transactivation reporter inhibitors, late-stage follow-up, counter-screen for SRC3 inhibitor project, cell-based, luminescence, dose response, powder samples (AID 651781). To be noted: HEK293 GAL4-VP16 UAS luciferase reporter. On the technique in general: Counterscreens check selectivity or assay interference.
In general, IC50 refers to the concentration needed to halve the response being measured. As for `CC(C)(C)c1ccc(-c2noc(CCC(=O)Nc3cccnc3)n2)cc1`, the IC50 was 9.65 µM.

Consider `OCCN1CCN(C(=S)c2ccc(-c3ccccc3)cc2)CC1`, for which the IC50 entry was “inactive”.

On to `O=C(Nc1ccccc1Oc1ccccc1)c1cc([N+](=O)[O-])ccc1Cl`, for which the IC50 entry is “inactive”.

In the case of `Cc1ccc(OCC(=O)c2cc(C)n(-c3ccccc3)c2C)c([N+](=O)[O-])n1`, the IC50 result is “inactive”.

As to `O=C(COC(=O)c1ccc[nH]c1=O)Nc1ccc(N2CCCCC2)cc1`, the IC50 is > 35.9 µM (inactive).

Turning to `CCCNC(=O)c1nnsc1S(=O)(=O)c1ccc(Cl)cc1`, the IC50 was 6.04 µM.

Take `CN1C(=O)C2(C(C#N)=C(N)N(c3cc(Cl)cc(Cl)c3)C3=C2C(=O)CCC3)c2ccccc21` (stereo not drawn): the IC50 entry is “inactive”.

For the molecule `CN1C(=O)C2(C(C#N)=C(N)N(c3cc(Cl)cc(Cl)c3)C3=C2C(=O)CC(C)(C)C3)c2ccccc21` (stereo not drawn), the IC50 entry is “inactive”.
